According to patent US20230406812A1, “NOVEL AMINOAROMATIC COMPOUND OR PHARMACEUTICALLY ACCEPTABLE SALT THEREOF, AND PHARMACEUTICAL COMPOSITION FOR PREVENTING OR TREATING NEURODEGENERATIVE DISEASES COMPRISING SAME AS ACTIVE INGREDIENT” (INSTITUTE FOR BASIC SCIENCE, priority 2020, published 2023):

Tests used:
hemoglobin (Hb) = hemoglobin (Hb) (Homo sapiens, UniProt P68871+P69905); assay: Hydrogen peroxide scavenging ability with hemoglobin (Amplex Red H2O2 assay); type: biochemical; details: 10 μM H2O2, 80 μg/ml hemoglobin, 37° C. about 30 minutes
Protocol: Amplex Red is a means which turns into a fluorescent substance called resorufin when horse radish peroxidase (HRP) and H2O2 exist together and allows measurement of changes in H2O2, that is, H2O2 assay. […] The experiment was performed by adding hemoglobin instead of HRP to the H2O2 assay by Amplex Red (FIG. 1). The final concentration of each substance was 10 μM of H2O2 and 80 μg/ml of hemoglobin, and the aminoaromatic compound of the present invention was treated by concentration. After the reaction at 37° C. for about 30 minutes as such, fluorescence (excitation: 540 nm, emission: 580 nm) was measured by a microplate reader. At this time, it can be said that fluorescence is proportional to the amount of H2O2. Normalization was performed for each concentration based on a fluorescence value without a drug, and a value at which the fluorescence value was 50%, that is, a half maximal effective concentration (EC50) was determined by a program through statistical processing. The results are shown in the following Table 2, and AAD-2004 was used as a control group.

[1] = Blood brain barrier (BBB) permeability analysis (PAMPA); type: in vitro ADME
Protocol: Based on J Med Chem. 2001 Mar. 15; 44 (6):923-30., an artificial blood brain barrier (BBB) was produced by a parallel artificial membrane permeability assay (PAMPA), and the permeability of the drug was assessed.

cultured astrocytes = assay: Cell viability (QuantiMax reagent); type: cell-based, C57BL/6 mice
Protocol: (§1) Primary cortical astrocytes were prepared from C57BL/6 mice from the day of birth to day 3 since birth. The cerebral cortex was dissected without adherent meninges, minced, and dissociated into a single cell suspension by trituration. The cells were grown in Dulbecco's modified Eagle's medium (DMEM) (Invitrogen) supplemented with 25 mM glucose, 10% heat-inactivated horse serum, 10% heat-inactivated fetal calf serum (FCS), 2 mM glutamine, and 1,000 U/ml of penicillin-streptomycin. Culture was maintained at 37° C. in a humidified 5% CO2 incubator. On day 3 of the culture, cells were vigorously washed by repeated pipetting, and the medium was exchanged to remove debris and other floating cell types.
In addition, in order to investigate cell viability, the experiment was performed using a QuantiMax reagent. The cell viability was confirmed by a luminescence degree of QuantiMax, and the results are shown in B of FIG. 3.

[2] = test system: APP/PS1 mouse hippocampus astrocytes (GFAP); assay: Immunohistochemistry (IHC) I of brain tissue, GFAP; type: in vivo; details: 30 mg/kg/day IP for 16 days
Protocol: The brain of the Alzheimer's animal model of Experimental Example 3 was fixed with formaldehyde, and sliced into a small thickness. The amount of cells or specific protein in the sliced brain was measured with an image by histochemical staining. In the present experimental example, an antibody labeling an astrocyte was used to measure a change in astrocytes related to dementia. The results are illustrated in FIG. 5. That is, in the present experimental example, the hippocampus of the brain was histologically stained and a change in astrocytes around dementia substance amyloid beta was observed. Glial fibrillary acidic protein (GFAP) refers to astrocytes staining, 4′,6-diamidino-2-phenylindole (DAPI) marked cell nuclei and amyloid beta substance.

WT mouse (C57BL/6 mouse) = assay: Single toxicity assessment (lethal dose 50, LD50); type: in vivo; details: for animals died: C57BL/6, mouse, 300 mg/kg; for animals died / toxicity (death of animals): in vivo, ip; for toxicity (death of animals): mouse, 1000 mg/kg; for lethal toxicity: single dose 100 mg/kg IP, C57BL/6 mouse
Protocol: The aminoaromatic compound of the present invention, KDS12008 (Example 1), KDS12017 (Example 16), or KDS12025 (Example 21) was intraperitoneally injected at a single dose of 100, 300, and 1000 mg/kg, respectively, into a WT mouse at about 8 weeks of age (C57BL/6 mouse), and it was assessed whether the animal was dead.

APP/PS1 mouse = assay: Passive avoidance test (PAT) I; type: in vivo; details: 30 mg/kg/day IP for 16 days
Protocol: A passive avoidance test is an experiment to check the memory of animals, in which a weak electric stimulation was given in a dark room and it was assessed whether the animal remembered the electrical stimulation.
Since mice preferred a dark room, they have a tendency to move quickly to a dark room when they are in a bright room. […] A time to move from a bright room to a dark room (latency to dark room, sec) was measured, thereby measuring memory of a combination of the electrical stimulation and the dark room. An APP/PS1 mouse which is used as an Alzheimer's animal model was used to perform the passive avoidance test (FIG. 4). A wild type (WT) mouse was used as a control group.
On the first day of PAT, as an acquisition session, the mouse was allowed to stay in a bright room, and after a certain time, a dark room was opened and a time for the mouse to enter the dark room was measured. When the mouse entered the dark room, an electrical shock (0.5 mA, 2 sec) was given by a foothold. On the second day, as a retrieval session, the mouse was placed in a bright room, and a time for the mouse to enter a dark room was measured. At this time, the door of the dark room was opened first.
The APP/PS1 dementia mouse was intraperitoneally injected with the aminoaromatic compound of the present invention (KDS12008 (Example 1), KDS12017 (Example 16), or KDS12025 (Example 21)) (KDS12008 (Example 1) 30 mg/kg/day (30 mpk); KDS12017 (Example 16) 30 mg/kg/day (30 mpk); KDS12025 (Example 21) 3 mg/kg/day (3 mpk)) for 16 days (intraperitoneal injection, IP).

[3] = test system: primary cultured astrocytes; assay: In vitro H2O2 decomposition in primary cultured astrocytes (H2DCFDA-AM); type: cell-based, C57BL/6 mice
Protocol: as §1
In order to verify that there was a H2O2 scavenging effect in a cell-level experiment, a cell-permeant 2′,7′-dichlorodihydrofluorescein diacetate (H2DCFDA-AM) drug which is a hydrogen peroxide probe in astrocytes was used to measure the amount of H2O2 in the cells with fluorescence (A and B of FIG. 2). […]
An experiment timeline for investigating the H2O2 decomposition effect by the aminoaromatic compound of the present invention, KDS12008 (Example 1) (10 μM) and sodium pyruvate (10 mM) for naturally occurring H2O2 in the cultured astrocytes is shown in A of FIG. 2. […] H2DCFDA-AM was a sample which reacted with H2O2 to produce green fluorescence, and was used at 10 μM for measurement. […]

Sequence of hemoglobin (Hb) (P69905 2-142 limits assumed): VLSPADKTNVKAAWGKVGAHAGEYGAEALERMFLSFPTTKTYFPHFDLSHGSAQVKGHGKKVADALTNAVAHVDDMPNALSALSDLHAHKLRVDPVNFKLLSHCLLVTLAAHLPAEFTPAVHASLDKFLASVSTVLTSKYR
Sequence of hemoglobin (Hb) (P68871 2-147 limits assumed): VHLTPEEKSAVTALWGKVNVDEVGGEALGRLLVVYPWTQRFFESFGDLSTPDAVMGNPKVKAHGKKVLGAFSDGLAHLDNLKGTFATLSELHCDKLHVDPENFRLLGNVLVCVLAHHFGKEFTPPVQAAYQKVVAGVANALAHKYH

Row | EC50 (hemoglobin (Hb)) | SMILES | further results
1 | 830 nM | Nc1ccc(NCCc2ccccc2C(F)(F)F)cc1 [Example 12] | 
2 | 430 nM | CN(C)c1ccc(NCCc2cccc(Cl)c2)cc1 [Example 5] | 
3 | 590 nM | Nc1ccc(NCCc2ccccc2Cl)cc1 [Example 15] | 
4 | 720 nM | Nc1ccc(NCCc2cccc(C(F)(F)F)c2)cc1 [Example 13] | 
5 | 560 nM | CN(C)c1ccc(NCCc2cccc(C(F)(F)F)c2)cc1 [Example 3] | 
6 | 260 nM | CNc1ccc(NCCc2cccc(Cl)c2)cc1 [Example 20] | 
7 | 300 nM | Nc1ccc(NCCc2ccc(C(F)(F)F)cc2)cc1 [Example 9] | 
8 | 190 nM | CNc1ccc(NCCc2cccc(C(F)(F)F)c2)cc1 [Example 19] | 
9 | 610 nM | CNc1ccc(NCCc2cccc(OC)c2)cc1 [Example 24] | 
10 | 410 nM | CN(C)c1ccc(NCCc2ccc(F)cc2)cc1 [Example 8] | 
11 | 780 nM | Nc1ccc(NCCc2cccc(F)c2)cc1 [Example 14] | 

More lines, now with the values behind:

Row | SMILES | EC50 (hemoglobin (Hb)) | further results
12 | COc1ccc(CCNc2ccc(N(C)C)cc2)cc1 [Example 7] | 460 nM | 
13 | CN(C)c1ccc(NCCc2ccccc2Cl)cc1 [Example 4] | 580 nM | 
14 | CN(C)c1ccc(NCCCc2ccc(C(F)(F)F)cc2)cc1 [Example 10] |  | EC50 (hemoglobin (Hb); (DMSO)): 300 nM
15 | O=C(O)c1cc(NCCc2ccc(C(F)(F)F)cc2)ccc1O [AAD-2004, reference compound] | 990 nM | Papp at 50 μM [1]: 3.56 ×10⁻⁶ cm/s
16 | CNc1ccc(NCCc2ccc(Cl)cc2)cc1 [Example 22] | 520 nM | 
17 | CC(=O)C(=O)[O-].[Na+] [sodium pyruvate, reference compound] |  | cell viability (cultured astrocytes; 10 mM): lowered cell viability
18 | CN(C)c1ccc(NCCc2ccc(Cl)cc2)cc1 [Example 6] | 270 nM | 
19 | CN(C)c1ccc(NCCc2ccc(C(F)(F)F)cc2)cc1 [Example 1] | 540 nM | cell viability (cultured astrocytes; 100 μM): no effect on cell viability; GFAP (astrocytes) in hippocampus [2]: decreased GFAP; animals died (WT mouse (C57BL/6 mouse)): about 50%; toxicity (death of animals) (WT mouse (C57BL/6 mouse)): showed toxicity; lethal toxicity (WT mouse (C57BL/6 mouse)): lethal toxicity was not shown; latency to dark room (impaired memory) (APP/PS1 mouse): significantly recovered; H2O2 decomposition effect on naturally occurring H2O2 ([3]; 10 μM, 2 days, cultured astrocytes): statistically significant decrease in H2O2; amount of H2O2 in cells (fluorescence intensity) ([3]; astrocytes treated at various concentrations): H2O2 was decreased with the concentration
20 | CNc1ccc(NCCCc2ccc(C(F)(F)F)cc2)cc1 [Example 17] |  | EC50 (hemoglobin (Hb); (DMSO)): 300 nM
21 | CNc1ccc(NCCc2ccccc2C(F)(F)F)cc1 [Example 18] | 210 nM | 
22 | Nc1ccc(NCCCc2ccc(C(F)(F)F)cc2)cc1 [Example 11] |  | EC50 (hemoglobin (Hb); (DMSO)): 540 nM
23 | CNc1ccc(NCCc2ccc(C(F)(F)F)cc2)cc1 [Example 16] | 190 nM | GFAP (astrocytes) in hippocampus [2]: decreased GFAP; animals died (WT mouse (C57BL/6 mouse)): about 50%; toxicity (death of animals) (WT mouse (C57BL/6 mouse)): showed toxicity; lethal toxicity (WT mouse (C57BL/6 mouse)): lethal toxicity was not shown; latency to dark room (impaired memory) (APP/PS1 mouse): significantly recovered
24 | CNc1ccc(NCCc2ccc(OC)cc2)cc1 [Example 23] | 620 nM | 
